Assay results: patent US12606528B2, “Methods and materials for inhibiting NF-kB activity” (University of Pittsburgh - Of the Commonwealth System of …, priority 2019, dated 2026)
pIC50: −log10 of the molar value. Where two headings read alike, the source gives them in different places.

How the values were obtained:
[1] = test system: TNF release; assay: TNF assay: TNF release from LPS-stimulated human PBMCs (TNF ELISA); assay type: cell-based; details: PBMC, read-out: IC50 (TNF assay)
How it was run: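 TNF ELISA on supernatants read-out; cells were 10k human PBMCs/well given LPS at 10 ng/mL for 18 h after a 2 h compound pre-incubation across a concentration series, with IC50 derived for suppression of TNF secretion.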

[2] = test system: NF-κB; assay: NF-κB assay: THP1-NF-κB-LUC cells, LPS-stimulated secreted luciferase; assay type: cell-based; details: THP1-NF-κB-LUC cells, read-out: IC50 (NF-κB assay)
How it was run: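 THP1-NF-κB-LUC cells (25k/well) were pretreated with compounds for 2 h, then stimulated with LPS (10 ng/mL) for 18 h. Secreted luciferase was measured and normalized to vehicle, and IC50 was fitted from the concentration series.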

[3] = human PBMCs, compounds 2 hours before LPS (10 ng/ml) for 18 hours, supernatant TNF ELISA
[4] = compounds 2 hours before LPS (10 ng/mL) for 18 hours, secreted luciferase
[5] = LPS-stimulated human PBMCs, TNF ELISA

Row | SMILES | pIC50 [1, 3] | pIC50 [2, 4] | pIC50 [1, 5] | pIC50 ([2]; LPS-stimulated)
1 | CC(C)CC1Oc2cc(S(=O)(=O)Nc3ccccc3)c(Br)cc2NC1=O (stereo not drawn) [BC19762] | < 5.00 | 6.00 to 7.00 |  | 
2 | CCC[S+]([O-])c1sc(-c2ccccc2)nc1S(=O)(=O)c1ccc(Cl)cc1 (stereo not drawn) [BC19472] |  |  | < 5.00 | < 5.00
3 | O=S(=O)(NCCCO)c1ccc2nc(-c3ccc(F)cc3)c(-c3ccc(F)cc3)nc2c1 [BC19509] |  |  | < 5.00 | > 7.00
4 | Cn1cc(-c2cnc3nc(-c4ccc(F)cc4)c(-c4ccc(F)cc4)nc3c2)nn1 [BC19401] |  |  | < 5.00 | > 7.00
5 | CN1CCN(C(=O)c2ccc3nc(C(F)(F)F)c(-c4ccc(F)cc4F)nc3c2)CC1 [BC19107] |  |  | < 5.00 | < 5.00
6 | Fc1ccc(-c2nc3ccc(-c4nncn4CCN4CCOCC4)cc3nc2-c2ccc(F)cc2)cc1 [BC19306] |  |  | < 5.00 | 6.00 to 7.00
7 | Cc1ccc(NS(=O)(=O)c2cc3c(cc2Cl)NC(=O)CO3)cc1Cl [BC19165] | < 5.00 | 6.00 to 7.00 |  | 
8 | C[S+]([O-])c1sc(-c2ccc(F)cc2)nc1S(=O)(=O)c1ccc(Cl)cc1 (stereo not drawn) [BC19413] |  |  | 5.00 to 6.00 | < 5.00
9 | CC1Oc2c(cc(Cl)cc2S(=O)(=O)Nc2ccc(F)c(F)c2)NC1=O (stereo not drawn) [BC19699] | < 5.00 | > 7.00 |  | 
10 | CCC1Oc2cc(S(=O)(=O)Nc3cccc(SC)c3)c(Cl)cc2NC1=O (stereo not drawn) [BC19213] | < 5.00 | 6.00 to 7.00 |  | 
11 | CC(C)S(=O)(=O)c1sc(-c2ccccc2)nc1S(=O)(=O)c1ccc(F)c(F)c1 [BC19334] |  |  | 5.00 to 6.00 | < 5.00
12 | O=S(=O)(NCc1ccccn1)c1ccc2nc(-c3ccc(F)cc3)c(-c3ccc(F)cc3)nc2c1 [BC19559] |  |  | < 5.00 | > 7.00
13 | Cc1noc(-c2ccc3nc(-c4ccc(F)cc4)c(-c4ccc(F)cc4)nc3c2)n1 [BC19193] |  |  | < 5.00 | 6.00 to 7.00
14 | CCC1Oc2cc(S(=O)(=O)Nc3ccc(OC)cc3)c(Cl)cc2NC1=O (stereo not drawn) [BC19211] | < 5.00 | 6.00 to 7.00 |  | 
15 | O=S(=O)(c1ccc(Cl)cc1)c1cnccc1O [BC19456] | < 5.00 | < 5.00 |  | 
16 | COc1ccc(NS(=O)(=O)c2cc3c(cc2Cl)NC(=O)C(C)O3)cc1 (stereo not drawn) [BC19706] | < 5.00 | > 7.00 |  | 
17 | CCc1ccc(NS(=O)(=O)c2cc(Br)cc3c2OCC(=O)N3)cc1 [BC19179] | < 5.00 | > 7.00 |  | 
18 | CC(C)[S+]([O-])c1snc(-c2ccc(F)cc2)c1S(=O)(=O)c1ccc(Cl)cc1 (stereo not drawn) [BC19727] |  |  | 5.00 to 6.00 | 5.00 to 6.00
19 | CS(=O)(=O)c1cc2c(c(S(=O)(=O)Nc3ccc(F)c(F)c3)c1)OCC(=O)N2 [BC19481] | < 5.00 | > 7.00 |  | 

Row | SMILES | pIC50 [1, 3] | pIC50 [2, 4] | pIC50 [1, 5] | pIC50 ([2]; LPS-stimulated)
20 | Cc1c(Cl)cc2c(c1S(=O)(=O)Nc1ccc(OC(F)(F)F)cc1)OCC(=O)N2 [BC19490] | < 5.00 | > 7.00 |  | 
21 | CCC1Oc2cc(S(=O)(=O)Nc3ccccc3)c(Br)cc2N(C)C1=O (stereo not drawn) [BC19928] | 5.00 to 6.00 | 6.00 to 7.00 |  | 
22 | CN1CCN(C(=O)c2ccc3nc(-c4ccc(C#N)cc4)c(-c4ccc(C#N)cc4)nc3c2)CC1 [BC19446] |  |  | < 5.00 | < 5.00
23 | CN1CCN(C(=O)C2CCc3nc(-c4ccc(F)cc4)c(-c4ccc(F)cc4)nc3C2)CC1 (stereo not drawn) [BC19663] |  |  | < 5.00 | 6.00 to 7.00
24 | CC(C)CC1Oc2c(cc(Br)cc2S(=O)(=O)Nc2cccc(F)c2)NC1=O (stereo not drawn) [BC19773] | < 5.00 | > 7.00 |  | 
25 | CC1Oc2cc(S(=O)(=O)Nc3ccc(OC(F)(F)F)cc3)c(Br)cc2N(C)C1=O (stereo not drawn) [BC19784] | < 5.00 | 5.00 to 6.00 |  | 
26 | CCS(=O)(=O)c1cc2c(c(S(=O)(=O)Nc3cccc(F)c3)c1)OCC(=O)N2 [BC19440] | < 5.00 | > 7.00 |  | 
27 | CCS(=O)(=O)c1cc2c(c(S(=O)(=O)Nc3ccc(F)c(F)c3)c1)OCC(=O)N2 [BC19421] | < 5.00 | > 7.00 |  | 
28 | O=S1(=O)CCn2c(-c3ccccc3)nc(S(=O)(=O)c3ccc(F)cc3)c21 [BC19542] |  |  | < 5.00 | < 5.00
29 | CC1Oc2cc(S(=O)(=O)N3CCCC3)c(Cl)cc2NC1=O (stereo not drawn) [BC19208] | < 5.00 | < 5.00 |  | 
30 | CN1CCN(C(=O)c2ccc3nc(-c4ccc(F)cc4)c(Nc4ccc(F)cc4)nc3c2)CC1 [BC19578] |  |  | < 5.00 | < 5.00
31 | CC1Oc2cc(S(=O)(=O)NCc3ccc(F)cc3F)c(Br)cc2NC1=O (stereo not drawn) [BC19356] | < 5.00 | 5.00 to 6.00 |  | 
32 | CC1Oc2c(cc(Cl)cc2S(=O)(=O)Nc2ccc(C#N)cc2)NC1=O (stereo not drawn) [BC19730] | < 5.00 | > 7.00 |  | 
33 | O=S(=O)(CC1CC1)c1oc(-c2cccc(F)c2)nc1S(=O)(=O)c1ccc(Cl)cc1 [BC19350] |  |  | 5.00 to 6.00 | 5.00 to 6.00
34 | COCCS(=O)(=O)c1oc(-c2ccccc2)nc1S(=O)(=O)c1ccc(C)cc1 [BC19266] |  |  | > 7.00 | > 7.00
35 | O=S(=O)(c1ccc(Cl)cc1)c1nc(-c2ccc(Cl)cc2)oc1[S+]([O-])CC1CC1 (stereo not drawn) [BC19464] |  |  | > 7.00 | 6.00 to 7.00
36 | Cc1ccc(-c2nc(S(=O)(=O)c3ccc(Br)cc3)c(S(C)(=O)=O)o2)cc1 [BC19128] |  |  | 6.00 to 7.00 | 5.00 to 6.00
37 | CC(C)CC1Oc2cc(S(=O)(=O)Nc3ccc(F)cc3)c(Br)cc2NC1=O (stereo not drawn) [BC19782] | < 5.00 | 5.00 to 6.00 |  | 
38 | CCC1Oc2c(cc(Cl)cc2S(=O)(=O)Nc2ccc(OC(F)(F)F)cc2)NC1=O (stereo not drawn) [BC19734] | < 5.00 | > 7.00 |  | 

Row | SMILES | pIC50 [1, 3] | pIC50 [2, 4] | pIC50 [1, 5] | pIC50 ([2]; LPS-stimulated)
39 | CCC[S+]([O-])c1sc(-c2cccc(F)c2)nc1S(=O)(=O)c1ccc(Cl)cc1 (stereo not drawn) [BC19531] |  |  | 6.00 to 7.00 | 5.00 to 6.00
40 | Cc1ccc(NS(=O)(=O)c2cc(S(C)(=O)=O)cc3c2OCC(=O)N3)cc1 [BC19488] | < 5.00 | > 7.00 |  | 
41 | CC1Oc2cc(S(=O)(=O)Nc3ccc(Cl)cc3)c(Cl)cc2NC1=O (stereo not drawn) [BC19696] | < 5.00 | 6.00 to 7.00 |  | 
42 | Fc1ccc(-c2nc3ccc(-c4c[nH]nn4)cc3nc2-c2ccc(F)cc2)cc1 [BC19150] |  |  | 5.00 to 6.00 | 6.00 to 7.00
43 | O=S(=O)(NCC1CC1)c1ccc2nc(-c3ccc(F)cc3)c(-c3ccc(F)cc3)nc2c1 [BC19506] |  |  | < 5.00 | 6.00 to 7.00
44 | CCC1Oc2cc(S(=O)(=O)Nc3ccc(Cl)cc3)c(Cl)cc2NC1=O (stereo not drawn) [BC19739] | < 5.00 | > 7.00 |  | 
45 | CC(C)CC1Oc2c(cc(Br)cc2S(=O)(=O)Nc2ccc(F)cc2)NC1=O (stereo not drawn) [BC19781] | 5.00 to 6.00 | > 7.00 |  | 
46 | CC(C)S(=O)(=O)c1oc(-c2ccccc2)nc1S(=O)(=O)c1ccc(F)c(F)c1 [BC19274] |  |  | 6.00 to 7.00 | > 7.00
47 | CC1Oc2cc(S(=O)(=O)Nc3ccc(F)c(F)c3)c(Cl)cc2NC1=O (stereo not drawn) [BC19698] | < 5.00 | > 7.00 |  | 
48 | COCCS(=O)(=O)c1oc(-c2ccccc2)nc1S(=O)(=O)c1ccc(Cl)cc1 [BC19331] |  |  | > 7.00 | > 7.00
49 | CS(=O)(=O)c1sc(-c2ccccc2)nc1S(=O)(=O)c1ccc(F)c(F)c1 [BC19279] |  |  | 6.00 to 7.00 | 6.00 to 7.00
50 | O=S(=O)(c1ccc(Cl)cc1)c1nc(-c2cccc(F)c2)oc1[S+]([O-])CC1CC1 (stereo not drawn) [BC19349] |  |  | > 7.00 | 6.00 to 7.00
51 | O=C1COc2cc(S(=O)(=O)NC3CCC(O)CC3)c(Br)cc2N1 (stereo not drawn) [BC19389] | < 5.00 | < 5.00 |  | 
52 | O=C1CCOc2cc(S(=O)(=O)Nc3ccc(F)cc3F)c(Br)cc2N1 [BC19693] |  |  | < 5.00 | < 5.00
53 | COc1ccc(NS(=O)(=O)c2cc(Br)cc3c2OCCNC3=O)cc1 [BC19606] |  |  | < 5.00 | 5.00 to 6.00
54 | Cc1nnc(-c2ccc3nc(-c4ccc(F)cc4)c(-c4ccc(F)cc4)nc3c2)n1C [BC19301] |  |  | < 5.00 | > 7.00
55 | O=C1COc2c(cc(Cl)cc2S(=O)(=O)Nc2ccc(OC(F)(F)F)cc2)N1 [BC19172] | < 5.00 | > 7.00 |  | 
56 | O=C(NCCCN1CCCC1=O)Nc1ccc2nc(-c3ccc(F)cc3)c(-c3ccc(F)cc3)nc2c1 [BC19617] |  |  | < 5.00 | 6.00 to 7.00
57 | C#CCNC(=O)c1ccc2nc(-c3cccc(N(C)C)c3)c(-c3cccc(N(C)C)c3)nc2c1 [BC19499] |  |  | < 5.00 | 5.00 to 6.00
